Source: ChEMBL document CHEMBL1687777, “Membrane efflux and influx modulate both multidrug resistance and virulence of Klebsiella pneumoniae in a Caenorhabditis elegans model” (2010)
Converted amounts (≈) assume the structure as drawn.

Experiments:
Klebsiella pneumoniae [1] = test: Antibacterial activity against porin, OmpA positive Klebsiella pneumoniae KPBj5 expressing efflux system by disk agar diffusion method; assay type: functional
Klebsiella pneumoniae [2] = test: Antibacterial activity against porin deficient OmpA positive Klebsiella pneumoniae KPBj5 revertant by disk agar diffusion method; assay type: functional
Klebsiella pneumoniae [3] = test: Antibacterial activity against porin deficient OmpA positive Klebsiella pneumoniae KPBj1 expressing efflux system by disk agar diffusion method; assay type: functional
Klebsiella pneumoniae [4] = test: Antibacterial activity against porin, OmpA positive Klebsiella pneumoniae ATCC 138821 by disk agar diffusion method; assay type: functional
Klebsiella pneumoniae [5] = test: Antibacterial activity against porin, OmpA positive extended-spectrum beta-lactamase producing Klebsiella pneumoniae KPBj1 by disk agar diffusion method; assay type: functional
Klebsiella pneumoniae [6] = test: microbe, parasite or virus in culture; conditions: KPBj1
Description: Antibacterial activity against porin deficient OmpA positive extended-spectrum beta-lactamase producing Klebsiella pneumoniae KPBj1 expressing efflux system by disk agar diffusion method

Klebsiella pneumoniae [7] = test: Antibacterial activity against porin, OmpA positive Klebsiella pneumoniae KPBj1 revertant by disk agar diffusion method; assay type: functional
Klebsiella pneumoniae [8] = test: Antibacterial activity against porin deficient OmpA positive Klebsiella pneumoniae KPBj3 revertant by disk agar diffusion method; assay type: functional
Klebsiella pneumoniae [9] = test: Antibacterial activity against porin, OmpA positive Klebsiella pneumoniae KPBj3 expressing efflux system by disk agar diffusion method; assay type: functional
Klebsiella pneumoniae [10] = test: Antibacterial activity against porin, OmpA positive Klebsiella pneumoniae KPBj1 expressing efflux system by disk agar diffusion method; assay type: functional
Klebsiella pneumoniae [11] = test: Antibacterial activity against porin deficient OmpA positive extended-spectrum beta-lactamase producing Klebsiella pneumoniae KPBj1 revertant by disk agar diffusion method; assay type: functional
Klebsiella pneumoniae [12] = test: Antibacterial activity against porin deficient OmpA positive Klebsiella pneumoniae KPBj3 expressing efflux system by disk agar diffusion method; assay type: functional
Klebsiella pneumoniae [13] = test: Antibacterial activity against porin, OmpA positive extended-spectrum beta-lactamase producing Klebsiella pneumoniae KPBj1 revertant by disk agar diffusion method; assay type: functional
Klebsiella pneumoniae [14] = test: Antibacterial activity against porin, OmpA positive Klebsiella pneumoniae KPBj3 revertant by disk agar diffusion method; assay type: functional
Klebsiella pneumoniae [15] = test: Antibacterial activity against porin, OmpA positive Klebsiella pneumoniae KPBj5 revertant by disk agar diffusion method; assay type: functional
Klebsiella pneumoniae [16] = test: Antibacterial activity against porin deficient OmpA positive Klebsiella pneumoniae KPBj5 expressing efflux system by disk agar diffusion method; assay type: functional
Klebsiella pneumoniae [17] = test: Antibacterial activity against porin deficient OmpA positive Klebsiella pneumoniae KPBj1 revertant by disk agar diffusion method; assay type: functional

Row | SMILES | MIC (Klebsiella pneumoniae [1]) [µg/mL] | MIC (Klebsiella pneumoniae [2]) [µg/mL] | MIC (Klebsiella pneumoniae [3]) [µg/mL] | MIC (Klebsiella pneumoniae [4]) [µg/mL] | MIC (Klebsiella pneumoniae [5]) [µg/mL] | MIC (Klebsiella pneumoniae [6]) [µg/mL] | MIC (Klebsiella pneumoniae [7]) [µg/mL] | MIC (Klebsiella pneumoniae [8]) [µg/mL] | MIC (Klebsiella pneumoniae [9]) [µg/mL] | MIC (Klebsiella pneumoniae [10]) [µg/mL] | MIC (Klebsiella pneumoniae [11]) [µg/mL] | MIC (Klebsiella pneumoniae [12]) [µg/mL] | MIC (Klebsiella pneumoniae [13]) [µg/mL] | MIC (Klebsiella pneumoniae [14]) [µg/mL] | MIC (Klebsiella pneumoniae [15]) [µg/mL] | MIC (Klebsiella pneumoniae [16]) [µg/mL] | MIC (Klebsiella pneumoniae [17]) [µg/mL]
1 | CO/N=C(\C(=O)N[C@@H]1C(=O)N2C(C(=O)O)=C(COC(C)=O)CS[C@H]12)c1csc(N)n1 [CEFOTAXIME] | 0.125 (≈ 0.274 µM) | 0.125 (≈ 0.274 µM) | 0.25 (≈ 0.549 µM) | 0.06 (≈ 0.132 µM) | 128 (≈ 281 µM) | 256 (≈ 562 µM) | 0.06 (≈ 0.132 µM) | 0.25 (≈ 0.549 µM) | 0.06 (≈ 0.132 µM) | 0.125 (≈ 0.274 µM) | 256 (≈ 562 µM) | 0.25 (≈ 0.549 µM) | 128 (≈ 281 µM) | 0.06 (≈ 0.132 µM) | 0.06 (≈ 0.132 µM) | 0.25 (≈ 0.549 µM) | 0.25 (≈ 0.549 µM)
2 | CCn1cc(C(=O)O)c(=O)c2ccc(C)nc21 [NALIDIXIC ACID] | 8 (≈ 34.4 µM) | 2 (≈ 8.61 µM) | 32 (≈ 138 µM) | 4 (≈ 17.2 µM) | 32 (≈ 138 µM) | 32 (≈ 138 µM) | 2 (≈ 8.61 µM) | 2 (≈ 8.61 µM) | 32 (≈ 138 µM) | 32 (≈ 138 µM) | 4 (≈ 17.2 µM) | 32 (≈ 138 µM) | 4 (≈ 17.2 µM) | 2 (≈ 8.61 µM) | 2 (≈ 8.61 µM) | 8 (≈ 34.4 µM) | 2 (≈ 8.61 µM)
3 | CO[C@@]1(NC(=O)Cc2cccs2)C(=O)N2C(C(=O)O)=C(COC(N)=O)CS[C@@H]21 [CEFOXITIN] | 8 (≈ 18.7 µM) | 16 (≈ 37.4 µM) | 32 (≈ 74.9 µM) | 2 (≈ 4.68 µM) | 8 (≈ 18.7 µM) | 32 (≈ 74.9 µM) | 2 (≈ 4.68 µM) | 32 (≈ 74.9 µM) | 4 (≈ 9.36 µM) | 8 (≈ 18.7 µM) | 32 (≈ 74.9 µM) | 32 (≈ 74.9 µM) | 2 (≈ 4.68 µM) | 2 (≈ 4.68 µM) | 2 (≈ 4.68 µM) | 32 (≈ 74.9 µM) | 32 (≈ 74.9 µM)
4 | O=C(N[C@H](CO)[C@H](O)c1ccc([N+](=O)[O-])cc1)C(Cl)Cl [CHLORAMPHENICOL] | 8 (≈ 24.8 µM) | 2 (≈ 6.19 µM) | 128 (≈ 396 µM) | 2 (≈ 6.19 µM) | 128 (≈ 396 µM) | 128 (≈ 396 µM) | 2 (≈ 6.19 µM) | 4 (≈ 12.4 µM) | 128 (≈ 396 µM) | 128 (≈ 396 µM) | 4 (≈ 12.4 µM) | 128 (≈ 396 µM) | 2 (≈ 6.19 µM) | 4 (≈ 12.4 µM) | 2 (≈ 6.19 µM) | 8 (≈ 24.8 µM) | 4 (≈ 12.4 µM)
5 | CC(C)(O/N=C(\C(=O)N[C@@H]1C(=O)N2C(C(=O)[O-])=C(C[n+]3ccccc3)CS[C@H]12)c1csc(N)n1)C(=O)O [CEFTAZIDIME] | 0.25 (≈ 0.457 µM) | 0.125 (≈ 0.229 µM) | 0.125 (≈ 0.229 µM) | 0.125 (≈ 0.229 µM) | 32 (≈ 58.5 µM) | 32 (≈ 58.5 µM) | 0.125 (≈ 0.229 µM) | 0.25 (≈ 0.457 µM) | 0.25 (≈ 0.457 µM) | 0.25 (≈ 0.457 µM) | 32 (≈ 58.5 µM) | 0.25 (≈ 0.457 µM) | 16 (≈ 29.3 µM) | 0.125 (≈ 0.229 µM) | 0.125 (≈ 0.229 µM) | 0.25 (≈ 0.457 µM) | 0.125 (≈ 0.229 µM)
6 | C[C@H]1COc2c(N3CCN(C)CC3)c(F)cc3c(=O)c(C(=O)O)cn1c23.C[C@H]1COc2c(N3CCN(C)CC3)c(F)cc3c(=O)c(C(=O)O)cn1c23.O [LEVOFLOXACIN] |  | 0.06 |  | 0.03 |  |  | 0.03 | 0.015 |  |  | 0.06 |  | 0.03 | 0.03 | 0.06 |  | 0.06
7 | C[C@@H](O)[C@H]1C(=O)N2C(C(=O)O)=C(S[C@@H]3CN[C@H](C(=O)Nc4cccc(C(=O)O)c4)C3)[C@H](C)[C@H]12 | 0.015 (≈ 0.0315 µM) | 0.25 (≈ 0.526 µM) | 0.5 (≈ 1.05 µM) | 0.007 (≈ 0.0147 µM) | 0.125 (≈ 0.263 µM) | 4 (≈ 8.41 µM) | 0.007 (≈ 0.0147 µM) | 0.25 (≈ 0.526 µM) | 0.007 (≈ 0.0147 µM) | 0.007 (≈ 0.0147 µM) | 2 (≈ 4.21 µM) | 0.25 (≈ 0.526 µM) | 0.03 (≈ 0.0631 µM) | 0.007 (≈ 0.0147 µM) | 0.007 (≈ 0.0147 µM) | 0.25 (≈ 0.526 µM) | 0.5 (≈ 1.05 µM)
